Laboratory results taken from US11753407B2, “Compounds for treating spinal muscular atrophy” (PTC Therapeutics, Inc., priority 2012, dated 2023).

Tests used:
[1] = tested on: SMN2 minigene mRNA (SMN2-A minigene) in HEK293H cells; assay: SMN2 minigene mRNA splicing RT-qPCR assay in cultured cells; type: cell-based, human; conditions: Homo sapiens, HEK293-H; concentration increasing full length SMN2 mRNA 1.5-fold relative to vehicle-treated cells; HEK293H cells with SMN2-A minigene, 24 hours, 7-point concentration data; read-out: EC1.5x for production of full length SMN2 mRNA
Outline: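 Potency reflects the concentration that lifts full-length SMN2 minigene mRNA 1.5-fold above vehicle in stably transfected HEK293H cells after 24 h of treatment. Transcript abundance came from RT-qPCR as (1+E)^−Ct, normalized to GAPDH; endogenous SMN1/SMN2 are not detected.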

[2] = tested on: Smn protein in SMA patient fibroblast cells (GM03813); assay: Smn protein assay in cultured cells (SMN HTRF); type: cell-based, human; conditions: SMA patient fibroblast cells, 48 hours; for EC1.5x for Smn protein expression: 7-point concentration curve, SMN HTRF, concentration producing 1.5 times Smn protein vs DMSO vehicle control; for maximum fold (Fold) increase of Smn protein: 7-point concentration data, fold relative to vehicle control
Outline: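 Smn protein abundance in treated SMA fibroblasts was measured by HTRF after 48 h compound exposure. The reported EC1.5× is the concentration producing 1.5 times vehicle Smn levels.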

Structure (SMILES)	melting point [°C]	EC (1.5-fold increase) [1] [µM]	EC1.5x for Smn protein expression [2]	maximum fold (Fold) increase of Smn protein [2]
Cc1nc2ccc(-c3cc(=O)n4nc(C5CCN(CCO)CC5)ccc4n3)cc2o1 [Compound 598, 7-[1-(2-hydroxyethyl)piperidin-4-yl]-2-(2-methyl-1,3-benzoxazol-6-yl)-4H-pyrimido[1,2-b]pyridazin-4-one]	205 to 207	0.1 to 0.3	*** (an EC1.5× between >0.3 μM and ≤1 μM is indicated by three stars (***))	***** (a fold increase >1.65 is indicated by five stars (*****))
Cc1cn2cc(-c3cc(=O)n4cc(C5CCN(CCO)CC5)ncc4n3)cc(Cl)c2n1 [Compound 599, 2-(8-chloro-2-methylimidazo[1,2-a]pyridin-6-yl)-7-[1-(2-hydroxyethyl)piperidin-4-yl]-4H-pyrazino[1,2-a]pyrimidin-4-one]	266 to 268	< 0.1	**** (an EC1.5x≤0.3 μM is indicated by four stars (****))	***** (a fold increase >1.65 is indicated by five stars (*****))
Cc1cn2nc(-c3cc(=O)n4cc(C5CCN(C6COC6)CC5)ccc4n3)cc2c(C)n1 [Compound 600, 2-(4,6-dimethylpyrazolo[1,5-a]pyrazin-2-yl)-7-[1-(oxetan-3-yl)piperidin-4-yl]-4H-pyrido[1,2-a]pyrimidin-4-one]	150 to 152	0.1 to 0.3	** (an EC1.5× between >1 μM and ≤3 μM is indicated by two stars (**))	**** (a fold increase between >1.5 and ≤1.65 is indicated by four stars (****))
CCN1CCN(c2ccc3nc(-c4cc5cc(C)nc(C)c5o4)cc(=O)n3c2)CC1 [Compound 601, 2-(5,7-dimethylfuro[2,3-c]pyridin-2-yl)-7-(4-ethylpiperazin-1-yl)-4H-pyrido[1,2-a]pyrimidin-4-one]	202 to 204	< 0.1	*** (an EC1.5× between >0.3 μM and ≤1 μM is indicated by three stars (***))	**** (a fold increase between >1.5 and ≤1.65 is indicated by four stars (****))
Cc1cn2nc(-c3cc(=O)n4cc(N5CCC6C(CCN6C)C5)ccc4n3)cc2c(C)n1 (stereo not shown) [Compound 602, 2-(4,6-dimethylpyrazolo[1,5-a]pyrazin-2-yl)-7-(1-methyloctahydro-5H-pyrrolo[3,2-c]pyridin-5-yl)-4H-pyrido[1,2-a]pyrimidin-4-one]	210 to 212	< 0.1	**** (an EC1.5x≤0.3 μM is indicated by four stars (****))	**** (a fold increase between >1.5 and ≤1.65 is indicated by four stars (****))
CCN1CCC(c2ccc3nc(-c4ccc5c(cnn5C)c4)cc(=O)n3c2)CC1 [Compound 604, 7-(1-ethylpiperidin-4-yl)-2-(1-methyl-1H-indazol-5-yl)-4H-pyrido[1,2-a]pyrimidin-4-one]	184 to 186	0.3 to 1	**** (an EC1.5x≤0.3 μM is indicated by four stars (****))	***** (a fold increase >1.65 is indicated by five stars (*****))
Cn1ncc2cc(-c3cc(=O)n4cc(C5CCN(CCO)CC5)ccc4n3)ccc21 [Compound 605, 7-[1-(2-hydroxyethyl)piperidin-4-yl]-2-(1-methyl-1H-indazol-5-yl)-4H-pyrido[1,2-a]pyrimidin-4-one]	204 to 206	0.3 to 1	*** (an EC1.5× between >0.3 μM and ≤1 μM is indicated by three stars (***))	***** (a fold increase >1.65 is indicated by five stars (*****))
Cn1cc2cc(-c3cc(=O)n4cc(C5CCNCC5)ccc4n3)ccc2n1 [Compound 606, 2-(2-methyl-2H-indazol-5-yl)-7-(piperidin-4-yl)-4H-pyrido[1,2-a]pyrimidin-4-one]	194 to 196	< 0.1	** (an EC1.5× between >1 μM and ≤3 μM is indicated by two stars (**))	**** (a fold increase between >1.5 and ≤1.65 is indicated by four stars (****))
Cc1cn2cc(-c3cc(=O)n4cc(C5CCNCC5)ccc4n3)cc(C)c2n1 [Compound 607, 2-(2,8-dimethylimidazo[1,2-a]pyridin-6-yl)-7-(piperidin-4-yl)-4H-pyrido[1,2-a]pyrimidin-4-one]	282 to 284	< 0.1	**** (an EC1.5x≤0.3 μM is indicated by four stars (****))	***** (a fold increase >1.65 is indicated by five stars (*****))

Now from value to molecule, other results behind:

melting point [°C]	Structure (SMILES)	EC (1.5-fold increase) [1] [µM]	EC1.5x for Smn protein expression [2]	maximum fold (Fold) increase of Smn protein [2]
221 to 232	Cc1cn2nc(-c3cc(=O)n4cc(N5CCC(NCCO)CC5)cc(C)c4n3)cc2c(C)n1 [Compound 609, 2-(4,6-dimethylpyrazolo[1,5-a]pyrazin-2-yl)-7-{4-[(2-hydroxyethyl)amino]piperidin-1-yl}-9-methyl-4H-pyrido[1,2-a]pyrimidin-4-one]	< 0.1	**** (an EC1.5x≤0.3 μM is indicated by four stars (****))	***** (a fold increase >1.65 is indicated by five stars (*****))
218 to 227	CNC1CCN(c2cc(C)c3nc(-c4cc5c(C)nc(C)cn5n4)cc(=O)n3c2)CC1 [Compound 610, 2-(4,6-dimethylpyrazolo[1,5-a]pyrazin-2-yl)-9-methyl-7-[4-(methylamino)piperidin-1-yl]-4H-pyrido[1,2-a]pyrimidin-4-one]	< 0.1	**** (an EC1.5x≤0.3 μM is indicated by four stars (****))	***** (a fold increase >1.65 is indicated by five stars (*****))
215 to 225	Cc1cn2nc(-c3cc(=O)n4cc(N5CCC(NC(C)C)CC5)cc(C)c4n3)cc2c(C)n1 [Compound 611, 2-(4,6-dimethylpyrazolo[1,5-a]pyrazin-2-yl)-9-methyl-7-[4-(propan-2-ylamino)piperidin-1-yl]-4H-pyrido[1,2-a]pyrimidin-4-one]	0.3 to 1		*** (a fold increase between >1.35 and ≤1.5 is indicated by three stars (***))
202 to 204	CCN1CCC(c2ccc3nc(-c4ccc5nn(C)cc5c4)cc(=O)n3c2)CC1 [Compound 612, 7-(1-ethylpiperidin-4-yl)-2-(2-methyl-2H-indazol-5-yl)-4H-pyrido[1,2-a]pyrimidin-4-one]	< 0.1	**** (an EC1.5x≤0.3 μM is indicated by four stars (****))	***** (a fold increase >1.65 is indicated by five stars (*****))
170 to 172	Cn1cc2cc(-c3cc(=O)n4cc(C5CCN(CCO)CC5)ccc4n3)ccc2n1 [Compound 613, 7-[1-(2-hydroxyethyl)piperidin-4-yl]-2-(2-methyl-2H-indazol-5-yl)-4H-pyrido[1,2-a]pyrimidin-4-one]	< 0.1	**** (an EC1.5x≤0.3 μM is indicated by four stars (****))	***** (a fold increase >1.65 is indicated by five stars (*****))
